These results are taken from the supplement of paper PMC12076712.

Assay in all cases: pIC50, kinobeads binding competition
What all share (settings): cell material: Jurkat lysate

Assay [1] addresses UniProt O96017.
Assay [2] concerns the target T1, MARK4 (UniProt Q96L34).
T1 sequence (whole entry): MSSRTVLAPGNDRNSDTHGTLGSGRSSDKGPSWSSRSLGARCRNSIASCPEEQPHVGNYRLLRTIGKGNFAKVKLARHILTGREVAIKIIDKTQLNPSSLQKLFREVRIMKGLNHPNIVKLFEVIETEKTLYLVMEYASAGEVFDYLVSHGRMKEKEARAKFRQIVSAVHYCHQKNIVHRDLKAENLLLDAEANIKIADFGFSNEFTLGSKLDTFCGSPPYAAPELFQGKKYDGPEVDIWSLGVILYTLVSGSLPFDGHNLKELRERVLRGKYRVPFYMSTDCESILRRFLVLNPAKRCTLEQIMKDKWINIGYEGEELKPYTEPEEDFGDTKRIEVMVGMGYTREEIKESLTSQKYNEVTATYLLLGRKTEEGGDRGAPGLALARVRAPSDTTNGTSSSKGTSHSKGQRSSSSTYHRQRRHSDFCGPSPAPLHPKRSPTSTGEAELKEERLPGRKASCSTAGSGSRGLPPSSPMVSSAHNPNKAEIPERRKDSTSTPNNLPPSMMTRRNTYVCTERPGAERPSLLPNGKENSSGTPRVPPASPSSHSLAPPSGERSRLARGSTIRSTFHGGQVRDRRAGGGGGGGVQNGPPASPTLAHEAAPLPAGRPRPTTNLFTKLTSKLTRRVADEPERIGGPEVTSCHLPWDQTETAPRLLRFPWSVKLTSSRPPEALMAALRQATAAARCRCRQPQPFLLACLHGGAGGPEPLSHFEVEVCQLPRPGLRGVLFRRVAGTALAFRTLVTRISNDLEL

For assay [3], the target named is T2, PIP4K2A (UniProt P48426).
T2 sequence (whole entry): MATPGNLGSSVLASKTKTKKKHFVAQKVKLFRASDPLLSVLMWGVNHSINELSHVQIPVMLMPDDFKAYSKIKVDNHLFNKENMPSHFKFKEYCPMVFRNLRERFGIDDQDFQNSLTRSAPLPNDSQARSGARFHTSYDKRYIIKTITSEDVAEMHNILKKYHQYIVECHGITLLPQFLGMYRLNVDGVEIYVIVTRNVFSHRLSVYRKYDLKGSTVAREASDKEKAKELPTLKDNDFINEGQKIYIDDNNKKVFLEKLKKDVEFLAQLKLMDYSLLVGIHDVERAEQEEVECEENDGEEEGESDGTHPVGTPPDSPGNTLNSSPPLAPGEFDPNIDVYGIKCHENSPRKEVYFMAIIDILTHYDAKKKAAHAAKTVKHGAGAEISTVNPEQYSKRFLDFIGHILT

Assay [4] concerns the target AAK1 (UniProt Q2M2I8).
Assay [5] has as its target UniProt Q92918.
Assay [6] has as its target T3, EPHA3 (UniProt P29320).
T3 sequence (whole entry): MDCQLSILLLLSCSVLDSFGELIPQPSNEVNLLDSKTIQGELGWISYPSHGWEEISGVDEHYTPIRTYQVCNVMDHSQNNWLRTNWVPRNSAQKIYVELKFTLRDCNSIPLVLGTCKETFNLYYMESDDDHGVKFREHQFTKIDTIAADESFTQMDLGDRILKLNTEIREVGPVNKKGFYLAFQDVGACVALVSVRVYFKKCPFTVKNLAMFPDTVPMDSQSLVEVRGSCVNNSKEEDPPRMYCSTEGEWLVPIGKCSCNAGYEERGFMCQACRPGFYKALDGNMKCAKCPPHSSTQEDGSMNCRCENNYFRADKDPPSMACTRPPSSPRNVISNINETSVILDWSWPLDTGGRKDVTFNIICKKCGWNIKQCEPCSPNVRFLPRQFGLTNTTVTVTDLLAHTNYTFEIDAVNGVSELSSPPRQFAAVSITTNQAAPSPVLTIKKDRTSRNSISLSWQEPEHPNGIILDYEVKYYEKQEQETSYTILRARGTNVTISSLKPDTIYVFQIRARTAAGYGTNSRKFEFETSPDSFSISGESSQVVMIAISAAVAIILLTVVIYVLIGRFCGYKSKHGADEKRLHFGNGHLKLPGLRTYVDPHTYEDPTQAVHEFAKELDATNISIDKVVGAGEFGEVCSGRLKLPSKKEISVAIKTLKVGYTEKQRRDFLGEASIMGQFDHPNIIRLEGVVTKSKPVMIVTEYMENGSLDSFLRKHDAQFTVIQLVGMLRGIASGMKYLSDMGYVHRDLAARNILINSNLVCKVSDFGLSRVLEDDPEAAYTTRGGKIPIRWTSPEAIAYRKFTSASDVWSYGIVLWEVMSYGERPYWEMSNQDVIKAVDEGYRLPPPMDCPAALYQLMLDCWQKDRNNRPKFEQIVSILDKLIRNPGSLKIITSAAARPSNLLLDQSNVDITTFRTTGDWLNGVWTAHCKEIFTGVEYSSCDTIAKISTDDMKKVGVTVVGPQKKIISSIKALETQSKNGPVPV

The target of assay [7] is SRC (UniProt P12931).
Assay [8] has as its target UniProt Q8N4C8.
Assay [9] addresses RAF1 (UniProt P04049).
For assay [10], the target named is T4, UniProt P52564.
T4 sequence (whole entry): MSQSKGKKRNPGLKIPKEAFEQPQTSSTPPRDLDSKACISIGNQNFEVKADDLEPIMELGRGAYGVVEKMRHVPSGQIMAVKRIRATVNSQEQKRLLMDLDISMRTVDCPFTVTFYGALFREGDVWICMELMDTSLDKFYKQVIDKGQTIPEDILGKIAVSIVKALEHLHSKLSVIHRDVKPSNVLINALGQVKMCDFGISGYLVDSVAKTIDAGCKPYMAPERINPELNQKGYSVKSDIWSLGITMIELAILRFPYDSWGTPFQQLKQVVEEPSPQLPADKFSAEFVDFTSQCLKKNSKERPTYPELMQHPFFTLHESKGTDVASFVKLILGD

Assay [11] has as its target HIPK1 (UniProt Q86Z02).

Chain of RAF1 (P04049 whole entry): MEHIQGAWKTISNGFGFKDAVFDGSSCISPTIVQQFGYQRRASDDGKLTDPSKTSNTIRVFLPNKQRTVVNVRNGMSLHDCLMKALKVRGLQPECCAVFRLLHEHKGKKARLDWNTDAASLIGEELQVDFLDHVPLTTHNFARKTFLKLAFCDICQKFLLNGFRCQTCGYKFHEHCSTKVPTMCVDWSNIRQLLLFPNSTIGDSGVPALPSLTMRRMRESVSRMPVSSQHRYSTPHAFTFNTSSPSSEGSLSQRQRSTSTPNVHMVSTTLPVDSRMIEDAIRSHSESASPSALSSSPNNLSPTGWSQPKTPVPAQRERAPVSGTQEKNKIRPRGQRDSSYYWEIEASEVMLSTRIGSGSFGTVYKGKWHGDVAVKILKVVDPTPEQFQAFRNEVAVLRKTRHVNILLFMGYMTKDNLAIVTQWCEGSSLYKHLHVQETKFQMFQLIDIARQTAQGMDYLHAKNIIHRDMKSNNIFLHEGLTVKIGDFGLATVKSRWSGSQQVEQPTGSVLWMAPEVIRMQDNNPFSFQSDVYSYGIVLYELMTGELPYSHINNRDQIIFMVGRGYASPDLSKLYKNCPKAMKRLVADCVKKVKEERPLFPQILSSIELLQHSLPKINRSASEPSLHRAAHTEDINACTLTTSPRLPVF
Chain of AAK1 (Q2M2I8 whole entry, looked up): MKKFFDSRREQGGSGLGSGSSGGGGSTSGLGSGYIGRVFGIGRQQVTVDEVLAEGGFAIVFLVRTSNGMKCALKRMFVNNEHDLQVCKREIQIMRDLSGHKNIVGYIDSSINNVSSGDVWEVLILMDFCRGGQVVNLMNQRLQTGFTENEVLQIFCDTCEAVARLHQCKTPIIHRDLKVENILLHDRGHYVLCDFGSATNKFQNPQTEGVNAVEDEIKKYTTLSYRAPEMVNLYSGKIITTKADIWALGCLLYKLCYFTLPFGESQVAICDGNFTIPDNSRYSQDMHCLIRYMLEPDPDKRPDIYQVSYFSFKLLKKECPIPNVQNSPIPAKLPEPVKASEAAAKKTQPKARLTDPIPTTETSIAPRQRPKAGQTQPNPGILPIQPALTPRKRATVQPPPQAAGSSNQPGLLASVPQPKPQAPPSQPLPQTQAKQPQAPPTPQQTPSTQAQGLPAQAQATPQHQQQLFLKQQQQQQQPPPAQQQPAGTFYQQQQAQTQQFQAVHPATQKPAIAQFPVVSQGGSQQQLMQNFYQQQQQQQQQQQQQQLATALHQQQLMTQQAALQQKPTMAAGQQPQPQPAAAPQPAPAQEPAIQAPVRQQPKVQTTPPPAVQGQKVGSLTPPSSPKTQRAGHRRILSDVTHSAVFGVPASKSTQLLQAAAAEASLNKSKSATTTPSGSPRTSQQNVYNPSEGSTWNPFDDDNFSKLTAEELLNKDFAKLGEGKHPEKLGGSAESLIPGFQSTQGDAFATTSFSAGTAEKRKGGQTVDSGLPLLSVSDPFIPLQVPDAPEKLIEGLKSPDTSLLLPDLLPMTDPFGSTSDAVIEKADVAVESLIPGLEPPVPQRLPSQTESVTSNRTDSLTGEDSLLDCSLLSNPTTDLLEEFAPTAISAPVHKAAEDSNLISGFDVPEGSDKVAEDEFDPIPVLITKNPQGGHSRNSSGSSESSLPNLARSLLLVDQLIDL
Chain of UniProt Q8N4C8 (Q8N4C8 whole entry, looked up): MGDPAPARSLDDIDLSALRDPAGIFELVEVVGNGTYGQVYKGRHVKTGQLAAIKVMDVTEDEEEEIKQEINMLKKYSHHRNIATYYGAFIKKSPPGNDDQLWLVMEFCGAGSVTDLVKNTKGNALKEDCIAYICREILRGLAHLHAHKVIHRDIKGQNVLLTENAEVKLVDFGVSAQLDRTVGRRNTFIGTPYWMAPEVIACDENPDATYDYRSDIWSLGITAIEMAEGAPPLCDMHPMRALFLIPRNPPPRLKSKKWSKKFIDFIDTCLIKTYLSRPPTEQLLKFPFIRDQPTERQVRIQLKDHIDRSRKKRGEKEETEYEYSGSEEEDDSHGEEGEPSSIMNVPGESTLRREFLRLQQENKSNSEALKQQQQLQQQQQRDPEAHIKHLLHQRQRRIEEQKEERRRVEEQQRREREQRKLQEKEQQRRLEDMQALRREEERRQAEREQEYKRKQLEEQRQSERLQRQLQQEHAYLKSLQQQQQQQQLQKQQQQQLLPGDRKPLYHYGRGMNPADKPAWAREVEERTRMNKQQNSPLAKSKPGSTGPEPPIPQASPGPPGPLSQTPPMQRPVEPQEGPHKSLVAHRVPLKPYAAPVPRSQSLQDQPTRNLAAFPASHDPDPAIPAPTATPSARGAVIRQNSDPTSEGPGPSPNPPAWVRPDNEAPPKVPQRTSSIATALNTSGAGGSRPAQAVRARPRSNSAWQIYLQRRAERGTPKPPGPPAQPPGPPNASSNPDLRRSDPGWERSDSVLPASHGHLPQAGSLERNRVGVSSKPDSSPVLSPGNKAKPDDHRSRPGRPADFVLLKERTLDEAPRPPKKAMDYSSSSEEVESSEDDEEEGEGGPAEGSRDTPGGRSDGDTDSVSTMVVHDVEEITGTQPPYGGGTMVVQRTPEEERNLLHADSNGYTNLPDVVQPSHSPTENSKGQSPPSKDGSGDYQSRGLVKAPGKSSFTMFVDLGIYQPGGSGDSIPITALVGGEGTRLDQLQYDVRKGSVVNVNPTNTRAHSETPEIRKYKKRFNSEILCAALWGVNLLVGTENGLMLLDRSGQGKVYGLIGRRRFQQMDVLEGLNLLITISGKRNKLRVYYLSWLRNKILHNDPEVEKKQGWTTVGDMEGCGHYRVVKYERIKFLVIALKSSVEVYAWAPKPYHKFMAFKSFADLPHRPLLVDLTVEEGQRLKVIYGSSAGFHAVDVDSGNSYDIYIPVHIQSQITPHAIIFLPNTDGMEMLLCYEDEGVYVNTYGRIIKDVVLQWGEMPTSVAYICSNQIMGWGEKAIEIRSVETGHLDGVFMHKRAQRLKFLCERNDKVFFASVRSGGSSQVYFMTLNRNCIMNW
Chain of UniProt Q92918 (Q92918 whole entry, looked up): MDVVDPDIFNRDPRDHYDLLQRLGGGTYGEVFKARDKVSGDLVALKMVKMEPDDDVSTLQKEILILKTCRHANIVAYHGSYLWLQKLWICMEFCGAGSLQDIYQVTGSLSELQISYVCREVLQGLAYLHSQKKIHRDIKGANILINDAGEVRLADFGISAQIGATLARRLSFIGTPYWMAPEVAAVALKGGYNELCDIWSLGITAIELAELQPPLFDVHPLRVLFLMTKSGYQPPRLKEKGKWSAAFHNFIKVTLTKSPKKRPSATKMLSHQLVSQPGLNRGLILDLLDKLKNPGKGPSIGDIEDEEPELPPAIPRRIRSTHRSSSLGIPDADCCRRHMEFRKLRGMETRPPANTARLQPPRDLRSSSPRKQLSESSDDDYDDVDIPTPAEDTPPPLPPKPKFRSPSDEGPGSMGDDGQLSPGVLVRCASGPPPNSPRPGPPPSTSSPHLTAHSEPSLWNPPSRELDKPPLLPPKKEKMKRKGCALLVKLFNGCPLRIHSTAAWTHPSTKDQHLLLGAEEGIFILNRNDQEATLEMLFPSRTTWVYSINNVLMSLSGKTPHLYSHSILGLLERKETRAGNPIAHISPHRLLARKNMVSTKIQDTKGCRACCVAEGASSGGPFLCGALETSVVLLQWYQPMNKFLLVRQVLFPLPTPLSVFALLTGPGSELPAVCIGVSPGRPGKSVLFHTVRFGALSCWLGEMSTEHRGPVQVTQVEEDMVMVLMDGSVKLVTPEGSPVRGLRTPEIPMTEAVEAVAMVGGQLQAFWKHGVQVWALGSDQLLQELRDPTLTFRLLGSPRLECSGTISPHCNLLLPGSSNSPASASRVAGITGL
Chain of SRC (P12931 whole entry, looked up): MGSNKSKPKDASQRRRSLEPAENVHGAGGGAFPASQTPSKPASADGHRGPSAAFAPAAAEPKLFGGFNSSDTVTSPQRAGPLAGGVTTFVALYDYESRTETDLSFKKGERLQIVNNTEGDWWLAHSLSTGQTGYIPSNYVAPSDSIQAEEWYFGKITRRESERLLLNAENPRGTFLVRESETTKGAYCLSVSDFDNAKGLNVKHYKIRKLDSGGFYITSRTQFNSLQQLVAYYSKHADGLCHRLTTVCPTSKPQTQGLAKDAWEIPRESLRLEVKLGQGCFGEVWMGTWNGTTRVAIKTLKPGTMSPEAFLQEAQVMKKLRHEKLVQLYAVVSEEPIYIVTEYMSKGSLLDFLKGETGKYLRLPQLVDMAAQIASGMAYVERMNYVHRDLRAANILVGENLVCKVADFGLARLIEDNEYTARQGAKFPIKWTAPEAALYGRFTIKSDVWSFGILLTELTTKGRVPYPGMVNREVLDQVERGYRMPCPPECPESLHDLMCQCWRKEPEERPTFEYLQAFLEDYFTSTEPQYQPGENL
Chain of UniProt O96017 (O96017 whole entry): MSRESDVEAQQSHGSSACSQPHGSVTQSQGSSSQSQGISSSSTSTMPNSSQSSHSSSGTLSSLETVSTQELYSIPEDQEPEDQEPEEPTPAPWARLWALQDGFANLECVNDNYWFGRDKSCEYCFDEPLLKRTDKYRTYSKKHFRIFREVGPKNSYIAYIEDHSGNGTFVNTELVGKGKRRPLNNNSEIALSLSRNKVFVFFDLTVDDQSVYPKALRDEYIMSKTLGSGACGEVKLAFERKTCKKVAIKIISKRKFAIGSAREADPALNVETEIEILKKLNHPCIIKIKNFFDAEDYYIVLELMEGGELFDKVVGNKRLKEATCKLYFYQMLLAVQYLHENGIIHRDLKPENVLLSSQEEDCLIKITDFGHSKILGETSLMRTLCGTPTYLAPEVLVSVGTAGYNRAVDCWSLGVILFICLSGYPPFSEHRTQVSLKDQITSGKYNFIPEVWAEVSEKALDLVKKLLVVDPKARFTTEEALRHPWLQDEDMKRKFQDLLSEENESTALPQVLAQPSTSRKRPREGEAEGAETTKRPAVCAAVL

In general, pIC50 refers to −log10 of the IC50, conventionally taken in molar units. A higher pIC50 goes with a small IC50. As to `CCc1cnn2c(NCc3ccc[n+]([O-])c3)cc(N3CCCC[C@H]3CCO)nc12` [dinaciclib], the pIC50 in assay [1], in assay [2], in assay [3], in assay [4], in assay [5] and in [6] was less than 4.52 in each case. Further, the pIC50 is less than 4.52 in assay [7]; less than 4.52 in [8]; less than 4.52 in [9]; less than 4.52 in [10]; 4.77 in assay [11].
